Laboratory results reported in ChEMBL document CHEMBL1134592, “Design and synthesis of matrix metalloproteinase inhibitors guided by molecular modeling. Picking the S(1) pocket using conformationally constrained inhibitors” (J Med Chem, 2001).

How the values were obtained:
[1] = target: Matrix metalloproteinase-9 (Homo sapiens, UniProt P14780); experiment: Inhibition of human matrix metalloprotease-9
[2] = target: 72 kDa type IV collagenase (Homo sapiens, UniProt P08253); experiment: Inhibition of matrix metalloprotease-2
72 kDa type IV collagenase, sequence (P08253 whole entry): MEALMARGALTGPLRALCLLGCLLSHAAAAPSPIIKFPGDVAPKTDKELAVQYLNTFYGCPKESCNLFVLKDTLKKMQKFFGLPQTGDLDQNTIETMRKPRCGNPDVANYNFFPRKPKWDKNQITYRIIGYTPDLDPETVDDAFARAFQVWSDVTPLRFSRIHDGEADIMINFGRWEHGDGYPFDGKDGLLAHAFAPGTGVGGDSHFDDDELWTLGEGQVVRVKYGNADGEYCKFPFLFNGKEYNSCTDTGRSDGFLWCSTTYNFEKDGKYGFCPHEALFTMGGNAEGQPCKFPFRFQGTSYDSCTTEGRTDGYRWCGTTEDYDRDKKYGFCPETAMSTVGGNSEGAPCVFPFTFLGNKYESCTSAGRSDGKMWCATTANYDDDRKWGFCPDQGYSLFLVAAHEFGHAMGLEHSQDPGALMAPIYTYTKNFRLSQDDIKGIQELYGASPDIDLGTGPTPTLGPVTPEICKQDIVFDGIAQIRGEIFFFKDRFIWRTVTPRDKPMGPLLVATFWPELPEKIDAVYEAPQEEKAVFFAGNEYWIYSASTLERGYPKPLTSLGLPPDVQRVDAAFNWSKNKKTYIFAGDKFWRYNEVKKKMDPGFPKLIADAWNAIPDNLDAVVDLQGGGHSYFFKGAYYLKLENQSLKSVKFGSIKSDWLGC

Interstitial collagenase = target: T1, Interstitial collagenase (Homo sapiens, UniProt P03956); experiment: Inhibition of human matrix metalloprotease-1
T1 sequence (P03956 whole entry): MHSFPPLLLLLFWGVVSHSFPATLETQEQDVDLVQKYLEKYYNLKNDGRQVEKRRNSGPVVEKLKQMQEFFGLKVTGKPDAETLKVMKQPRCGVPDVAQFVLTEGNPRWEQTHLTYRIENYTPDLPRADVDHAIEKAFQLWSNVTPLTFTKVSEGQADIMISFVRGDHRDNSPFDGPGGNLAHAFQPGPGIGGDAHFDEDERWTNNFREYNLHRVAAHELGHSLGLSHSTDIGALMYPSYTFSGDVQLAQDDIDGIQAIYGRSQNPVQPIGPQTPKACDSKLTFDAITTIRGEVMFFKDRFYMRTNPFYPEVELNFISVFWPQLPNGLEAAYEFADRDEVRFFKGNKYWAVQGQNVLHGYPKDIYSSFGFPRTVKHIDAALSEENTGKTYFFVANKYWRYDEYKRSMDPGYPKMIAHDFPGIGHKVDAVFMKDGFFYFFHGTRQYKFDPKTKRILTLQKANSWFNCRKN

Collagenase 3 = Collagenase 3 (Homo sapiens, UniProt P45452); experiment: Inhibition of matrix metalloprotease-13
Stromelysin-1 = Stromelysin-1 (Homo sapiens, UniProt P08254); experiment: Inhibition of matrix metalloprotease-3
Stromelysin-1, sequence (P08254 whole entry): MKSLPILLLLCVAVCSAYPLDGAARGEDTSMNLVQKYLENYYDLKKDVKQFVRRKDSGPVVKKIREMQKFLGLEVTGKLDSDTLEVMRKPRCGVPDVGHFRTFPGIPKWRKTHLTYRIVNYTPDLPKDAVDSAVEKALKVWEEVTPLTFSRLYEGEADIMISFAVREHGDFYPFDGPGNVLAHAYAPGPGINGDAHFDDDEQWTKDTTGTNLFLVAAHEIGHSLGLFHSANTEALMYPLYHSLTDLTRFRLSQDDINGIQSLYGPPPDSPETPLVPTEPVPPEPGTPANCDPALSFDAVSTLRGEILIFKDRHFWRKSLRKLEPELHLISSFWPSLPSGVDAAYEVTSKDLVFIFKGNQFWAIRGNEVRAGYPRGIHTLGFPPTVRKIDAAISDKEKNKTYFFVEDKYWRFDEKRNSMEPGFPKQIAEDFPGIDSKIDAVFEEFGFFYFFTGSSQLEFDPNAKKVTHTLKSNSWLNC

Matrix metalloproteinase-9, sequence (P14780 whole entry): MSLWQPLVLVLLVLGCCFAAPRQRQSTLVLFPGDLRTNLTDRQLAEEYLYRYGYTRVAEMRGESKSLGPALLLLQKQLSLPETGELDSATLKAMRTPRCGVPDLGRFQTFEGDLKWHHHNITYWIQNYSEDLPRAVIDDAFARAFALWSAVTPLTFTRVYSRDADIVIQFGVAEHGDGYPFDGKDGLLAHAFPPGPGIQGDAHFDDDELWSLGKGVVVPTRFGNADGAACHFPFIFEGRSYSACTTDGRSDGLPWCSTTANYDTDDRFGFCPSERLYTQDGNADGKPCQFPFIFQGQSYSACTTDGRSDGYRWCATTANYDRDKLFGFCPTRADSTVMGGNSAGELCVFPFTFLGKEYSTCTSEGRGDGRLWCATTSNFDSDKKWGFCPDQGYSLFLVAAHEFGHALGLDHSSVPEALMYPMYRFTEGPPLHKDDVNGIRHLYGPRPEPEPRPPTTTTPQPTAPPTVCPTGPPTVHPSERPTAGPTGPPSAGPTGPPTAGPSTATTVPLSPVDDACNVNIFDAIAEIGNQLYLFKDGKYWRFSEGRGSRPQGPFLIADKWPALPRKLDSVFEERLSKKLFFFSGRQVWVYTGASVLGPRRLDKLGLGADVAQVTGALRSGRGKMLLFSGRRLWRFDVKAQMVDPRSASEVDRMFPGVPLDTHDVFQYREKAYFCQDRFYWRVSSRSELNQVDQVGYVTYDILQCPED

Structure (SMILES) | IC50 [1] [nM] | IC50 [2] [nM] | IC50 (Interstitial collagenase) [nM] | IC50 (Collagenase 3) [nM] | IC50 (Stromelysin-1) [nM]
COc1ccc(S(=O)(=O)N(CC(C)C)[C@H](CCSCc2ccccc2)C(=O)NO)cc1 | 2.5 | 0.7 | 104 | 12 | 0.7
C=CC1[C@H](C(=O)NO)N(S(=O)(=O)c2ccc(OC)cc2)CC1(C)C (some centres not stated) | 138 | 441 | – | 519 | 293
COc1ccc(S(=O)(=O)N2CC(C)(C)C([C@H](O)CSc3ccccc3)[C@@H]2C(=O)NO)cc1 (some centres not stated) | 0.9 | 2.5 | 117 | 3.7 | 3
COc1ccc(S(=O)(=O)N2CC(C)(C)C(CO)[C@@H]2C(=O)NO)cc1 (some centres not stated) | 50 | 143 | – | 218 | 136
COc1ccc(S(=O)(=O)N2CC(C)(C)C(COCc3ccccc3)[C@@H]2C(=O)NO)cc1 (some centres not stated) | 9.2 | 32 | 1620 | 44.2 | 10.1
COc1ccc(S(=O)(=O)N2CC(C)(C)C(CSCCc3ccccc3)[C@@H]2C(=O)NO)cc1 (some centres not stated) | 2.8 | 15.4 | 654 | 17 | 6.5
COc1ccc(S(=O)(=O)N2CC(C)(C)C([C@@H](O)CSc3ccccc3)[C@@H]2C(=O)NO)cc1 (some centres not stated) | 3.6 | 16.2 | 301 | 18.1 | 18.7
COc1ccc(CSCC2[C@H](C(=O)NO)N(S(=O)(=O)c3ccc(OC)cc3)CC2(C)C)cc1 (some centres not stated) | 4.4 | 4.6 | 458 | 22.3 | 16.7
COc1ccc(S(=O)(=O)N2CC(C)(C)C(CSCc3ccccc3)[C@@H]2C(=O)NO)cc1 (some centres not stated) | 0.9 | 1.64 | – | 5.5 | 6.7
